Reference: the supplement of paper PMC10307832

Experiments:
Assay in all cases: relative viability (nuclei count vs DMSO), 5 days (fraction); higher = more cells survive
[1] = tested on: 201T
How it was run: (§1)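 After 5 days of treatment, lung cancer cells in 1536-well plates were fixed and stained in a single step (final 0.05% Triton X-100, 1% formaldehyde, 1 ug/ml Hoechst) and their nuclei counted on 4× images. Treatment had been applied by pin tool the day after seeding as one drug alone or as a fixed anchor-drug dose with five library-drug doses (not always all listed) in √10 steps. Relative viability is the nuclei count of treated wells divided by that of vehicle wells, and values are medians of duplicate plates.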

[2] = tested on: ABC-1
How it was run: as §1

[3] = tested on: COR-L23
How it was run: as §1

[4] = tested on: EKVX
How it was run: as §1

[5] = tested on: EPLC-272H
How it was run: as §1

[6] = tested on: HCC-44
How it was run: as §1

[7] = tested on: LOU-NH91
How it was run: as §1

[8] = tested on: NCI-H1563
How it was run: as §1

[9] = tested on: NCI-H1650
How it was run: as §1

[10] = tested on: NCI-H1734
How it was run: as §1

[11] = tested on: NCI-H1793
How it was run: as §1

[12] = tested on: NCI-H1993
How it was run: as §1

Compound `COc1cc(N2CCC(C(N)=O)CC2)ccc1Nc1nc(N)c(Cl)c(Nc2ccccc2S(=O)(=O)C(C)C)n1` [HG-5-88-01] + CS(=O)(=O)N1CCN(Cc2cc3nc(-c4cccc5[nH]ncc45)nc(N4CCOCC4)c3s2)CC1 [Pictilisib] (partner 1 µM) has a relative viability ([1]; first compound 0.04 µM) of 0.71, a relative viability ([1]; first compound 0.1265 µM) of 0.64 and a relative viability ([1]; first compound 0.4 µM) of 0.649. The relative viability ([1]; first compound 1.265 µM) was 0.729, the relative viability ([1]; first compound 4 µM) was 0.739 and the relative viability ([2]; first compound 0.04 µM) was 0.614. The relative viability ([2]; first compound 0.1265 µM) was 0.829, the relative viability ([2]; first compound 0.4 µM) was 0.679 and the relative viability ([2]; first compound 1.265 µM) was 0.681. The relative viability ([2]; first compound 4 µM) was 0.522, the relative viability ([3]; first compound 0.04 µM) was 0.629 and the relative viability ([3]; first compound 0.1265 µM) was 0.725. The relative viability ([3]; first compound 0.4 µM) was 0.608, the relative viability ([3]; first compound 1.265 µM) was 0.371 and the relative viability ([3]; first compound 4 µM) was 0.353. It also gave a relative viability ([4]; first compound 0.04 µM) of 0.444, a relative viability ([4]; first compound 0.1265 µM) of 0.426 and a relative viability ([4]; first compound 0.4 µM) of 0.372. It also gave a relative viability ([4]; first compound 4 µM) of 0.355, a relative viability ([5]; first compound 0.04 µM) of 0.302 and a relative viability ([5]; first compound 0.1265 µM) of 0.262. It also gave a relative viability ([5]; first compound 0.4 µM) of 0.29, a relative viability ([5]; first compound 1.265 µM) of 0.219 and a relative viability ([5]; first compound 4 µM) of 0.0916. It also gave a relative viability ([6]; first compound 0.04 µM) of 0.695, a relative viability ([6]; first compound 0.1265 µM) of 0.569 and a relative viability ([6]; first compound 0.4 µM) of 0.542. For the same compound, the relative viability ([6]; first compound 1.265 µM) was 0.519, the relative viability ([6]; first compound 4 µM) was 0.375 and the relative viability ([7]; first compound 0.04 µM) was 0.495. The relative viability ([7]; first compound 0.1265 µM) was 0.514, the relative viability ([7]; first compound 0.4 µM) was 0.513 and the relative viability ([7]; first compound 1.265 µM) was 0.482. It also gave a relative viability ([7]; first compound 4 µM) of 0.401, a relative viability ([8]; first compound 0.04 µM) of 0.66 and a relative viability ([8]; first compound 0.1265 µM) of 0.671. It also gave a relative viability ([8]; first compound 0.4 µM) of 0.638, a relative viability ([8]; first compound 1.265 µM) of 0.651 and a relative viability ([8]; first compound 4 µM) of 0.634. It also gave a relative viability ([9]; first compound 0.04 µM) of 0.583, a relative viability ([9]; first compound 0.1265 µM) of 0.551 and a relative viability ([9]; first compound 0.4 µM) of 0.565. The relative viability ([9]; first compound 1.265 µM) was 0.519, the relative viability ([9]; first compound 4 µM) was 0.355 and the relative viability ([10]; first compound 0.04 µM) was 0.405. It also gave a relative viability ([10]; first compound 0.1265 µM) of 0.423, a relative viability ([10]; first compound 0.4 µM) of 0.411 and a relative viability ([10]; first compound 1.265 µM) of 0.358. It also gave a relative viability ([10]; first compound 4 µM) of 0.476, a relative viability ([11]; first compound 0.1265 µM) of 0.336 and a relative viability ([11]; first compound 0.4 µM) of 0.3. It also gave a relative viability ([11]; first compound 1.265 µM) of 0.426, a relative viability ([11]; first compound 4 µM) of 0.308 and a relative viability ([12]; first compound 0.04 µM) of 0.689. The relative viability ([12]; first compound 0.1265 µM) was 0.829 and the relative viability ([12]; first compound 0.4 µM) was 0.606.
